Experimental findings from PubChem BioAssay (NCI) are described below.

Values joined by “and” are separate entries in the source; they are usually repeats but may differ in a detail not shown here. Equal values may be shown once.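 Values below derive from 48-hour exposures of cells grown in 96-well plates, with endpoints linearly interpolated between the two concentrations bracketing the appropriate inhibition level. At the GI50, growth is halved. At the TGI there is no net growth.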 Some results are limits rather than exact numbers.

Some test systems named below: SF-539 CNS; MDA-N; PC-3 prostate; MDA-MB-231 breast; OVCAR-4 ovarian; SNB-75 CNS; OVCAR-5 ovarian; OVCAR-3 ovarian; TK-10 renal; NCI/ADR-RES ovarian; SK-OV-3 ovarian; KM12 colon.
Test in all cases: growth of human tumour cells (NCI), 48 h

Consider `Nc1ncc(N)c(NCC2(CO)CC(CCc3ccccc3)C2)n1` (stereo not given), for which the TGI was found to be 8.67 µM in the test with SF-539 CNS; 21.5 µM in the test on MDA-N; 18.9 µM in the test with PC-3 prostate; 14.8 µM in the test on MDA-MB-231 breast; 20.8 µM with OVCAR-4 ovarian; 29.4 µM in the test with SNB-75 CNS. In addition, the TGI in the test with OVCAR-5 ovarian is 28.5 µM; with OVCAR-3 ovarian, 13.3 µM; with TK-10 renal, 25.1 µM; in the test with NCI/ADR-RES ovarian it was 40.9 µM; in the test with SK-OV-3 ovarian, 25.4 µM; in the test with KM12 colon, 23 µM.
On to `CCOC(=O)CON=c1c2ccccc2ccc2ccccc12`, for which the TGI in the test on SF-539 CNS, with MDA-N, in the test on PC-3 prostate, with MDA-MB-231 breast, with OVCAR-4 ovarian and in the test on SNB-75 CNS was above 100 µM in each case. For the same compound, the TGI with OVCAR-5 ovarian, in the test on OVCAR-3 ovarian, in the test with TK-10 renal, in the test with NCI/ADR-RES ovarian, with SK-OV-3 ovarian and with KM12 colon was above 100 µM throughout.
For `C=C1C(=O)OC2/C=C(\C)CC/C=C(\C)CC(OC(=O)/C(=C/CO)CO)[C@@H]12` (stereo not given in full), the TGI in the test with SF-539 CNS was 26.3 µM; with MDA-N, 20.2 µM; in the test on PC-3 prostate, 31.8 µM; in the test with MDA-MB-231 breast it was 28.2 µM; in the test with OVCAR-4 ovarian, 27.5 µM; in the test with SNB-75 CNS it was 29.8 µM. Besides, the TGI in the test with OVCAR-5 ovarian was 31.3 µM; with OVCAR-3 ovarian it was 18.4 µM; in the test with TK-10 renal, 15.8 µM; in the test on NCI/ADR-RES ovarian it was 59.6 µM; in the test with SK-OV-3 ovarian, above 100 µM; with KM12 colon, 35.1 µM.
As for `C=CCN1C(=O)/C(=C/c2ccc(OC)cc2)N=C1SC1OC(COC(C)=O)C(OC(C)=O)C(OC(C)=O)C1OC(C)=O` (stereo not given), the GI50 with SF-539 CNS was 19.9 µM and 42.8 µM; with PC-3 prostate, 16.9 µM and 52.6 µM; in the test on MDA-MB-231 breast, 18.8 µM and 39.2 µM; in the test on OVCAR-5 ovarian it was 19.3 µM and 56.3 µM; with OVCAR-3 ovarian it was 13.5 µM and 58.2 µM; in the test with TK-10 renal it was 20.2 µM and > 100 µM. In addition, the GI50 in the test on KM12 colon was 21.4 µM and > 100 µM. Moreover, the TGI is 44.5 µM and > 100 µM in the test with SF-539 CNS; above 100 µM in the test on MDA-N; 37.1 µM and > 100 µM in the test with PC-3 prostate; 42.9 µM and > 100 µM in the test with MDA-MB-231 breast; 15 µM and > 100 µM in the test on OVCAR-4 ovarian; 40.7 µM and > 100 µM with SNB-75 CNS. Moreover, the TGI in the test with OVCAR-5 ovarian was 39.7 µM and > 100 µM; in the test on OVCAR-3 ovarian, 30 µM and > 100 µM; with TK-10 renal, 39.6 µM and > 100 µM; in the test with NCI/ADR-RES ovarian, above 100 µM; with SK-OV-3 ovarian, 36 µM and > 100 µM; in the test with KM12 colon, 62.5 µM and > 100 µM.
